From ChEMBL document CHEMBL4411321, “Discovery of Potent, Selective, and Orally Bioavailable Estrogen-Related Receptor-γ Inverse Agonists To Restore the Sodium Iodide Symporter Function in Anaplastic Thyroid Cancer” (J Med Chem, 2019)

Columns and labels:
CYP1A2 = molecular target: T1, CYP1A2 (Homo sapiens, UniProt P05177); assay: Inhibition of CYP1A2 in human liver microsomes assessed as reduction in phenacetin O-deethylase activity at 10 uM preincubated for 5 mins followed by NADPH addition and measured after 15 mins by LC-MS/MS analysis relative to control; format: ADME; settings: probe phenacetin (O-deethylation)
T1 sequence (P05177 whole entry): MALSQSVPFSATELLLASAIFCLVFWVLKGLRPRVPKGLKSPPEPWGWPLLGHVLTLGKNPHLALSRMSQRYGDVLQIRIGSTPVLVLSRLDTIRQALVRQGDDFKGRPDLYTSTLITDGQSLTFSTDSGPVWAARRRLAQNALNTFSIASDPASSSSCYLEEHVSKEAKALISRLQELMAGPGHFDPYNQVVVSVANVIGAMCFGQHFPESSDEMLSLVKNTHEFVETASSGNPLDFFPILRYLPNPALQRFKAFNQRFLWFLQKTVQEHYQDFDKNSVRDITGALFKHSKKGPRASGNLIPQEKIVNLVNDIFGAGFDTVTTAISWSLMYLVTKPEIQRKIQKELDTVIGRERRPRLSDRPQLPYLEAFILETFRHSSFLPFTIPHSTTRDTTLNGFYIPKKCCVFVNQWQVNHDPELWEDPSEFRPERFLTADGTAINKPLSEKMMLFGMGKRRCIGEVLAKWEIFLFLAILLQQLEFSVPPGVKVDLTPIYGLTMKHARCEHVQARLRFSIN

[1] = Metabolic stability in human liver microsomes assessed as compound remaining at 1 uM after 30 mins in presence of NADPH regeneration system by LC-MS/MS analysis; format: ADME, Microsome; settings: read-out: Stability
CYP2C9 = CYP2C9 (Homo sapiens, UniProt P11712); assay: Inhibition of CYP2C9 in human liver microsomes assessed as reduction in tolbutamide 4-hydroxylase activity at 10 uM preincubated for 5 mins followed by NADPH addition and measured after 15 mins by LC-MS/MS analysis relative to control; format: ADME; settings: probe tolbutamide (4-hydroxylation)
[2] = Effective permeability of the compound at 10 uM after 5 hrs by PAMPA; format: ADME; settings: read-out: Peff
[3] = Cmax in Sprague-Dawley rat at 9 to 10 mg/kg, po via gavage by LC-MS/MS analysis; format: ADME, organism-based; settings: in vivo
CYP3A4 = CYP3A4 (Homo sapiens, UniProt P08684); assay: Inhibition of CYP3A4 in human liver microsomes assessed as reduction in midazolam 1-hydroxylase activity at 10 uM preincubated for 5 mins followed by NADPH addition and measured after 15 mins by LC-MS/MS analysis relative to control; format: ADME; settings: probe midazolam (1-hydroxylation)
[4] = AUC in Sprague-Dawley rat at 9 to 10 mg/kg, po via gavage by LC-MS/MS analysis; format: ADME, organism-based; settings: in vivo
[5] = AUC (0 to infinity) in Sprague-Dawley rat at 9 to 10 mg/kg, po via gavage by LC-MS/MS analysis; format: ADME, organism-based; settings: in vivo
in vivo [6] = settings: Sprague-Dawley, rat, plasma, iv, 1 mg/kg
CYP2C19 = CYP2C19 (Homo sapiens, UniProt P33261); assay: Inhibition of CYP2C19 in human liver microsomes assessed as reduction in S-mephenytoin 4-hydroxylase activity at 10 uM preincubated for 5 mins followed by NADPH addition and measured after 15 mins by LC-MS/MS analysis relative to control; format: ADME; settings: probe S-mephenytoin (4-hydroxylation)
[7] = AUC (0 to infinity) in Sprague-Dawley rat at 1 mg/kg, iv by LC-MS/MS analysis; format: ADME, organism-based; set-up: dose 1 mg/kg, time infinity, route intravenous; settings: in vivo
[8] = Oral bioavailability in Sprague-Dawley rat at 9 to 10 mg/kg via gavage by LC-MS/MS analysis; format: ADME, organism-based; settings: in vivo
[9] = molecular target: T2, Steroid hormone receptor ERR1 (Homo sapiens, UniProt P11474)
T2 sequence (P11474 whole entry): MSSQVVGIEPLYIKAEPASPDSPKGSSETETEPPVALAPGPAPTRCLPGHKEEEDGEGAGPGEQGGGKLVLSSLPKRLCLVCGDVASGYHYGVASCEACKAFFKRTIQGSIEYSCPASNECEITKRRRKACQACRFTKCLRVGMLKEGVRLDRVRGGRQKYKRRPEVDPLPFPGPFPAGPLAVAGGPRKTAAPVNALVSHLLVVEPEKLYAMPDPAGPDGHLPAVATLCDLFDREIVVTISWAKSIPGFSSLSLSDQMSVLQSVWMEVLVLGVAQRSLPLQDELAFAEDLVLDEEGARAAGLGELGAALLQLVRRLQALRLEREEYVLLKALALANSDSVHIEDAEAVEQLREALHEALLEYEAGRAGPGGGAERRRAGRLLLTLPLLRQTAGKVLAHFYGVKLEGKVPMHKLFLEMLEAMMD

CYP2D6 = CYP2D6 (Homo sapiens, UniProt P10635); assay: Inhibition of CYP2D6 in human liver microsomes assessed as reduction in dextromethorphan O-demethylase activity at 10 uM preincubated for 5 mins followed by NADPH addition and measured after 15 mins by LC-MS/MS analysis relative to control; format: ADME; settings: probe dextromethorphan (O-demethylation)
Estrogen receptor = molecular target: T3, Estrogen receptor (Homo sapiens, UniProt P03372)
T3 sequence (P03372 whole entry): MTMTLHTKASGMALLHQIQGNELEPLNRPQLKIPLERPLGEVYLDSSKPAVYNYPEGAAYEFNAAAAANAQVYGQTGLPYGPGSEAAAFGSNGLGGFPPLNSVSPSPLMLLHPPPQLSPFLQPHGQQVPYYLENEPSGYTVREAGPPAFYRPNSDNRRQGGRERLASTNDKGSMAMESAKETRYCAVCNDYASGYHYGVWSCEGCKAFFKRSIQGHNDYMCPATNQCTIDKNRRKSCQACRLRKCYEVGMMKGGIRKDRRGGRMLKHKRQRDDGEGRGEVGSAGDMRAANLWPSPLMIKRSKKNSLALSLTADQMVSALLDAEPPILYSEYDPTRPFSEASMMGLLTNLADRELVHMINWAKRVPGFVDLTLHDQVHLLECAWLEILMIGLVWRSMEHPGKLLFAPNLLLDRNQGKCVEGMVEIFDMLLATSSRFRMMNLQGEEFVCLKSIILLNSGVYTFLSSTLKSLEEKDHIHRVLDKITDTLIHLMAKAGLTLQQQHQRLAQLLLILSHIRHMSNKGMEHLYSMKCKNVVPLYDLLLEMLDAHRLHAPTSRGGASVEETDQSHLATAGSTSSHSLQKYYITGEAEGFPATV

in vivo [10] = settings: Sprague-Dawley, rat, iv, 1 mg/kg
[11] = Metabolic stability in rat liver microsomes assessed as compound remaining at 1 uM after 30 mins in presence of NADPH regeneration system by LC-MS/MS analysis; format: ADME, Microsome; settings: read-out: Stability
[12] = Metabolic stability in mouse liver microsomes assessed as compound remaining at 1 uM after 30 mins in presence of NADPH regeneration system by LC-MS/MS analysis; format: ADME, Microsome; settings: read-out: Stability
[13] = Terminal half life in Sprague-Dawley rat at 1 mg/kg, iv by LC-MS/MS analysis; format: ADME, organism-based; settings: in vivo, read-out: beta t1/2 (converted)
in vivo [14] = settings: Sprague-Dawley, rat, iv, 1 mg/kg; remark: listed apart in the source
Description: Volume of distribution at steady state in Sprague-Dawley rat at 1 mg/kg, iv by LC-MS/MS analysis

[15] = Tmax in Sprague-Dawley rat at 9 to 10 mg/kg, po via gavage by LC-MS/MS analysis; format: ADME, organism-based; settings: in vivo
[16] = molecular target: Voltage-gated inwardly rectifying potassium channel KCNH2 (Homo sapiens, UniProt Q12809)
Description: Inhibition of human ERG after 4 hrs by fluorescence polarization assay

[17] = Metabolic stability in dog liver microsomes assessed as compound remaining at 1 uM after 30 mins in presence of NADPH regeneration system by LC-MS/MS analysis; format: ADME, Canis lupus familiaris, Microsome; settings: read-out: Stability
[18] = molecular target: T4, Estrogen-related receptor gamma (Homo sapiens, UniProt P62508)
T4 sequence (P62508 whole entry): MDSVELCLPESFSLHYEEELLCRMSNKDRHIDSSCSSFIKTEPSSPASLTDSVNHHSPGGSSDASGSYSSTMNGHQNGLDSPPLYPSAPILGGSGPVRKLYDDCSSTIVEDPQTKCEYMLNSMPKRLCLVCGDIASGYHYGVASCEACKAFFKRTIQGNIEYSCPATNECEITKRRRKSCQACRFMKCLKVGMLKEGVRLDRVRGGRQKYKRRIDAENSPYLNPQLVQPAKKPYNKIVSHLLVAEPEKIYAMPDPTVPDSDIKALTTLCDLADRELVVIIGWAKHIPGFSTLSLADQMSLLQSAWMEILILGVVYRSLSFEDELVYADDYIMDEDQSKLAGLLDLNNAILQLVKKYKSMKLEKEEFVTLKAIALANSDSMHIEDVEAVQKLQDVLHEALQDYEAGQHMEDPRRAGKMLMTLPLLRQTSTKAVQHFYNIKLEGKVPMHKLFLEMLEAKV

[19] = molecular target: T4, Estrogen-related receptor gamma; remark: listed apart in the source
Description: Inverse agonist activity at CMX-gal4-fused ERRgamma (unknown origin) transfected in human AD293 cells co-expressing CMV-beta galactosidase assessed as effect on beta-galactosidase activity after 24 hrs by luciferase reporter gene assay

Chain of CYP2C9 (P11712 whole entry): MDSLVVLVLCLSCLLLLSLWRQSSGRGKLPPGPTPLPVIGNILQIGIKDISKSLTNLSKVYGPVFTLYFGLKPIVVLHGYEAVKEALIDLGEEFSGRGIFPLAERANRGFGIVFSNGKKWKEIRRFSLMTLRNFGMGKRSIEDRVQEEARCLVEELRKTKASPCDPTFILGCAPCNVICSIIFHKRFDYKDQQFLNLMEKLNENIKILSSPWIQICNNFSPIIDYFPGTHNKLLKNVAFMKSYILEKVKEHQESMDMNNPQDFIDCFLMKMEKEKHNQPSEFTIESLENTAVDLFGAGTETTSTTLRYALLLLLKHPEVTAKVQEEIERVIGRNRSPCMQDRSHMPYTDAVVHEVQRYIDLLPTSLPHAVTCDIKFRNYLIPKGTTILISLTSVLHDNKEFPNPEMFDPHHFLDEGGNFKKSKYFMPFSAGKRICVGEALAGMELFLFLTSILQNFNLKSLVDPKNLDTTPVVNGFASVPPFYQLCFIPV
Chain of CYP2D6 (P10635 whole entry): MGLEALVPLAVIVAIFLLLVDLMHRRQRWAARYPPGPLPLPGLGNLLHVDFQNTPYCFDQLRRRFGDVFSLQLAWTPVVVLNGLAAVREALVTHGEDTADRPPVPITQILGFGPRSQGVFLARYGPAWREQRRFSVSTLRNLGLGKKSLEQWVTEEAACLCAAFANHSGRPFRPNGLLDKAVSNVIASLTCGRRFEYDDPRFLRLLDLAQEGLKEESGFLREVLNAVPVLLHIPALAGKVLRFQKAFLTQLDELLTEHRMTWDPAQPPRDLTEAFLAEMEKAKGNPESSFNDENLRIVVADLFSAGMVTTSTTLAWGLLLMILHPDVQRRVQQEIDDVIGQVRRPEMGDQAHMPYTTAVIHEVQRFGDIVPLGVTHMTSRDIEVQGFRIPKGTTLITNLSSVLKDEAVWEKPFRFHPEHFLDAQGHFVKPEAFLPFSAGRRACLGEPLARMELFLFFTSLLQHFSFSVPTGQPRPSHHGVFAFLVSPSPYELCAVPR
Chain of Voltage-gated inwardly rectifying potassium channel KCNH2 (Q12809 whole entry): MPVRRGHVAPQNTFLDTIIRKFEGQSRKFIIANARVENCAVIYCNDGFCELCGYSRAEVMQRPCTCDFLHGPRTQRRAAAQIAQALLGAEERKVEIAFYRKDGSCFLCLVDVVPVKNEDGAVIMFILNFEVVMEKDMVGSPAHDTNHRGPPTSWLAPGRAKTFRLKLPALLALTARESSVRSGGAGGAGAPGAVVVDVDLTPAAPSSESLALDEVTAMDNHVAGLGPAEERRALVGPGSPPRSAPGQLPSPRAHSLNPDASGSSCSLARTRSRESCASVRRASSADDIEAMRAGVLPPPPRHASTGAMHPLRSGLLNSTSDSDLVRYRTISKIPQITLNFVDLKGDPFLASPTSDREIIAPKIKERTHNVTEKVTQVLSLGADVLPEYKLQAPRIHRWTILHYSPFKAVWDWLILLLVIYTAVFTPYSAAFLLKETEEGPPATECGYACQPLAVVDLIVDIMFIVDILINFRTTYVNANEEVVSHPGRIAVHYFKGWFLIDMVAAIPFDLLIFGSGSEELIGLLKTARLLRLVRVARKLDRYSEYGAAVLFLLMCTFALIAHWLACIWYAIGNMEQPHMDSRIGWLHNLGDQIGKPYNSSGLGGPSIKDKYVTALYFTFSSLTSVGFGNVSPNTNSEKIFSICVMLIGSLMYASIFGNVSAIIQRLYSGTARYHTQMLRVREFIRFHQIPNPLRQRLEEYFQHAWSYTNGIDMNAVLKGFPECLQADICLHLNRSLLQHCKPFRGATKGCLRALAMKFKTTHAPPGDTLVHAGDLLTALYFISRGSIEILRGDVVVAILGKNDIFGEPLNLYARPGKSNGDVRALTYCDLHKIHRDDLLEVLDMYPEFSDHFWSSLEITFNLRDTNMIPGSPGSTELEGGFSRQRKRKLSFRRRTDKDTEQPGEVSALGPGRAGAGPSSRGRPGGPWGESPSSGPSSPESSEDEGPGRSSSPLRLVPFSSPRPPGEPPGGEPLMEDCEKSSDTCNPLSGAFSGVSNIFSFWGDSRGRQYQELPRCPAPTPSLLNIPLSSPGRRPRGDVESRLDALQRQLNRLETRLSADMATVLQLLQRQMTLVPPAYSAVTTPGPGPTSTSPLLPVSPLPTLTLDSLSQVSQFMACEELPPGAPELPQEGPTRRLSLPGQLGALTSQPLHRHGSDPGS
Chain of CYP3A4 (P08684 whole entry): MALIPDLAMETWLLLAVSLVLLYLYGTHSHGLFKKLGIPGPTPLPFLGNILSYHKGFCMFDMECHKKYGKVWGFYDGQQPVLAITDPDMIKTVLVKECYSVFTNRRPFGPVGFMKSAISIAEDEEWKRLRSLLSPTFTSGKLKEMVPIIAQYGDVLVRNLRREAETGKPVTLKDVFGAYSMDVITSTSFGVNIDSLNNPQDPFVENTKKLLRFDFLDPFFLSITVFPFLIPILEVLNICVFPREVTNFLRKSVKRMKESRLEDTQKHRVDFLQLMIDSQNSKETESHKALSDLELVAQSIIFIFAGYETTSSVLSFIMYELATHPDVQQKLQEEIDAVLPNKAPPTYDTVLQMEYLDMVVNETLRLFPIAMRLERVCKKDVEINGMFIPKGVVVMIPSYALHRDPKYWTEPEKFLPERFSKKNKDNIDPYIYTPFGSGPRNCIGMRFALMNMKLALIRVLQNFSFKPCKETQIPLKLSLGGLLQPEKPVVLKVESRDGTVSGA
Chain of CYP2C19 (P33261 whole entry): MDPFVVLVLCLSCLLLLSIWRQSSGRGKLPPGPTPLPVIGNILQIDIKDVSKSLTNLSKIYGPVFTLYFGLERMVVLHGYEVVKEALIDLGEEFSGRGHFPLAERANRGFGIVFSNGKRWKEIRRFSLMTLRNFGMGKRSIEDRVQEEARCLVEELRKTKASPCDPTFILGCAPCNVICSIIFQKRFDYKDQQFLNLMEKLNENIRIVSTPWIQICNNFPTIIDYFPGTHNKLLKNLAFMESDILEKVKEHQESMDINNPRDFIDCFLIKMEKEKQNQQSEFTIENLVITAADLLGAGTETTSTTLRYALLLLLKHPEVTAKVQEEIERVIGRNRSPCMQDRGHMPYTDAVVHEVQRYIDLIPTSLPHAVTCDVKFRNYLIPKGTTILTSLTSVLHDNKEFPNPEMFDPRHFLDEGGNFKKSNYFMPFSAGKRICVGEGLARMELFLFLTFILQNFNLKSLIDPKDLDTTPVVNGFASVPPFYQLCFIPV

| SMILES | inhibition at 0.25 h, 10 µM (CYP1A2) | remaining at 0.5 h, 1 µM [1] | inhibition at 0.25 h, 10 µM (CYP2C9) | Papp at 5 h, 10 µM [2] | Cmax [3] | inhibition at 0.25 h, 10 µM (CYP3A4) | AUC [4] | AUC(0-inf) [5] | clearance (in vivo [6]) | inhibition at 0.25 h, 10 µM (CYP2C19) | AUC(0-inf) [7] | bioavailability [8] | IC50 [9] | inhibition at 0.25 h, 10 µM (CYP2D6) | IC50 (Estrogen receptor) | AUC (in vivo [10]) | remaining at 0.5 h, 1 µM [11] | remaining at 0.5 h, 1 µM [12] | half-life [13] | Vd (in vivo [14]) | other results |
| --- | --- | --- | --- | --- | --- | --- | --- | --- | --- | --- | --- | --- | --- | --- | --- | --- | --- | --- | --- | --- | --- |
| Cc1ccc(/C(=C(\CCCO)c2ccccc2)c2ccc(N3CCN(C(C)C)CC3)cc2)cc1.Cl.Cl | 10.2% | 54.2% | 26.6% | 2.09 ×10⁻⁶ cm/s | 160 nM | 47% | 1.02 µM·h | 1.41 µM·h | 58 mL/min/kg | 30.3% | 0.64 µM·h | 17.6% | > 10 µM | 31.1% | > 10 µM | 0.58 µM·h | 40% | 19.7% | 3.1 h | 9.8 L/kg | Tmax [15]: 4 h; IC50 [16]: > 30 µM |
| Cc1ccc(/C(=C(\CCCO)c2ccccc2)c2ccc(N3CCN(C)CC3)cc2)cc1.Cl.Cl | 0% | 79.2% | 37.7% | 4.84 ×10⁻⁶ cm/s | 80 nM | 29.1% | 0.45 µM·h | 0.66 µM·h | 139 mL/min/kg | 27.2% | 0.29 µM·h | 18.3% | > 10 µM | 31.8% | > 10 µM | 0.28 µM·h | 65.7% | 47.6% | 2.5 h | 30.3 L/kg | Tmax [15]: 2.8 h; IC50 [16]: 18.9 µM |
| CCN1CCN(c2ccc(/C(=C(/CCCO)c3ccccc3)c3ccc(C)cc3)cc2)CC1.Cl.Cl | 0% | 67.9% | 13% | 4.47 ×10⁻⁶ cm/s | 210 nM | 22.4% | 1.07 µM·h | 1.61 µM·h | 59 mL/min/kg | 26% | 0.6 µM·h | 19.6% | > 10 µM | 13.4% | > 10 µM | 0.55 µM·h | 62.8% | 54.9% | 3.2 h | 9.8 L/kg | remaining at 0.5 h, 1 µM [17]: 58%; IC50 [18]: 0.025 µM; Tmax [15]: 3 h; IC50 [19]: 0.018 µM |
| CC(C)N1CCN(c2ccc(/C(=C(/CCCO)c3ccccc3)c3ccc(O)cc3)cc2)CC1.Cl.Cl | 12% | 26.6% | 13.9% | 0.46 ×10⁻⁶ cm/s | – | 33.6% | – | – | – | 18.8% | – | – | > 10 µM | 36.5% | – | – | 32.5% | 19.9% | – | – | remaining at 0.5 h, 1 µM [17]: 49.7%; IC50 [16]: 18.7 µM |
| CN(C)CCOc1ccc(/C(=C(/CCCO)c2ccccc2)c2ccc(O)cc2)cc1.Cl | – | – | – | – | – | – | 0.68 µM·h | – | 44 mL/min/kg | – | – | 8.4% | – | – | – | – | – | – | – | 16.8 L/kg | – |
